Experimental data from ChEMBL document CHEMBL1781873, “Synthesis and antibacterial property of pyrrolopyrano quinolinones and pyrroloquinolines” (2011).
Active and inactive are the calls of the source. The rule behind the calls is not given here.

Experiments:
Salmonella typhi [1] = test: Antibacterial activity against Salmonella typhi at 10 ug after 24 hrs by disc diffusion assay; assay type: functional, Salmonella enterica subsp. enterica serovar Typhi; settings: Salmonella enterica, read-out: IZ
Salmonella typhi [2] = test: Antibacterial activity against Salmonella typhi at 15 ug after 24 hrs by disc diffusion assay; assay type: functional, Salmonella enterica subsp. enterica serovar Typhi; settings: Salmonella enterica, read-out: IZ
Salmonella typhi [3] = test: Antibacterial activity against Salmonella typhi at 20 ug after 24 hrs by disc diffusion assay; assay type: functional, Salmonella enterica subsp. enterica serovar Typhi; settings: Salmonella enterica, read-out: IZ
Salmonella typhi [4] = test: Antibacterial activity against Salmonella typhi at 25 ug after 24 hrs by disc diffusion assay; assay type: functional, Salmonella enterica subsp. enterica serovar Typhi; settings: Salmonella enterica, read-out: IZ
Bacillus subtilis [5] = test: Antibacterial activity against Bacillus subtilis at 10 ug after 24 hrs by disc diffusion assay; assay type: functional; settings: read-out: IZ
Bacillus subtilis [6] = test: Antibacterial activity against Bacillus subtilis at 15 ug after 24 hrs by disc diffusion assay; assay type: functional; settings: read-out: IZ
Bacillus subtilis [7] = test: Antibacterial activity against Bacillus subtilis at 20 ug after 24 hrs by disc diffusion assay; assay type: functional; settings: read-out: IZ
Bacillus subtilis [8] = test: Antibacterial activity against Bacillus subtilis at 25 ug after 24 hrs by disc diffusion assay; assay type: functional; settings: read-out: IZ
Escherichia coli [9] = test: Inhibition of Escherichia coli DNA gyrase assessed as inhibition of DNA supercoiling activity using pBR322 DNA as substrate at […] after 3 hrs by agarose gel electrophoresis
Escherichia coli [10] = test: Inhibition of Escherichia coli DNA gyrase -mediated DNA relaxation using pBR322 DNA as substrate at […] after 1 hrs by agarose gel electrophoresis
Escherichia coli [11] = test: Inhibition of DNA gyrase mRNA expression in Escherichia coli measured up to 24 hrs by RT-PCR; assay type: functional, organism-based
Staphylococcus aureus [12] = test: Antibacterial activity against Staphylococcus aureus after 18 to 20 hrs by broth micro dilution assay; assay type: functional
Escherichia coli [13] = test: Antibacterial activity against Escherichia coli after 18 to 20 hrs by broth micro dilution assay; assay type: functional
Klebsiella pneumoniae [14] = test: Antibacterial activity against Klebsiella pneumoniae after 18 to 20 hrs by broth micro dilution assay; assay type: functional
Pseudomonas aeruginosa [15] = test: Antibacterial activity against Pseudomonas aeruginosa after 18 to 20 hrs by broth micro dilution assay; assay type: functional
Salmonella typhi [16] = test: Antibacterial activity against Salmonella typhi after 18 to 20 hrs by broth micro dilution assay; assay type: functional, Salmonella enterica subsp. enterica serovar Typhi; settings: Salmonella enterica
Bacillus subtilis [17] = test: Antibacterial activity against Bacillus subtilis after 18 to 20 hrs by broth micro dilution assay; assay type: functional
Staphylococcus aureus [18] = test: Antibacterial activity against Staphylococcus aureus at 5 ug after 24 hrs by disc diffusion assay; assay type: functional; settings: read-out: IZ
Staphylococcus aureus [19] = test: Antibacterial activity against Staphylococcus aureus at 10 ug after 24 hrs by disc diffusion assay; assay type: functional; settings: read-out: IZ
Staphylococcus aureus [20] = test: Antibacterial activity against Staphylococcus aureus at 15 ug after 24 hrs by disc diffusion assay; assay type: functional; settings: read-out: IZ
Staphylococcus aureus [21] = test: Antibacterial activity against Staphylococcus aureus at 20 ug after 24 hrs by disc diffusion assay; assay type: functional; settings: read-out: IZ
Staphylococcus aureus [22] = test: Antibacterial activity against Staphylococcus aureus at 25 ug after 24 hrs by disc diffusion assay; assay type: functional; settings: read-out: IZ
Escherichia coli [23] = test: Antibacterial activity against Escherichia coli at 5 ug after 24 hrs by disc diffusion assay; assay type: functional; settings: read-out: IZ
Escherichia coli [24] = test: Antibacterial activity against Escherichia coli at 10 ug after 24 hrs by disc diffusion assay; assay type: functional; settings: read-out: IZ
Escherichia coli [25] = test: Antibacterial activity against Escherichia coli at 15 ug after 24 hrs by disc diffusion assay; assay type: functional; settings: read-out: IZ
Escherichia coli [26] = test: Antibacterial activity against Escherichia coli at 20 ug after 24 hrs by disc diffusion assay; assay type: functional; settings: read-out: IZ
Escherichia coli [27] = test: Antibacterial activity against Escherichia coli at 25 ug after 24 hrs by disc diffusion assay; assay type: functional; settings: read-out: IZ
Pseudomonas aeruginosa [28] = test: Antibacterial activity against Pseudomonas aeruginosa at 5 ug after 24 hrs by disc diffusion assay; assay type: functional; settings: read-out: IZ
Pseudomonas aeruginosa [29] = test: Antibacterial activity against Pseudomonas aeruginosa at 10 ug after 24 hrs by disc diffusion assay; assay type: functional; settings: read-out: IZ
Pseudomonas aeruginosa [30] = test: Antibacterial activity against Pseudomonas aeruginosa at 15 ug after 24 hrs by disc diffusion assay; assay type: functional; settings: read-out: IZ
Pseudomonas aeruginosa [31] = test: Antibacterial activity against Pseudomonas aeruginosa at 20 ug after 24 hrs by disc diffusion assay; assay type: functional; settings: read-out: IZ
Pseudomonas aeruginosa [32] = test: Antibacterial activity against Pseudomonas aeruginosa at 25 ug after 24 hrs by disc diffusion assay; assay type: functional; settings: read-out: IZ
Klebsiella pneumoniae [33] = test: Antibacterial activity against Klebsiella pneumoniae at 5 ug after 24 hrs by disc diffusion assay; assay type: functional; settings: read-out: IZ
Klebsiella pneumoniae [34] = test: Antibacterial activity against Klebsiella pneumoniae at 10 ug after 24 hrs by disc diffusion assay; assay type: functional; settings: read-out: IZ
Klebsiella pneumoniae [35] = test: Antibacterial activity against Klebsiella pneumoniae at 15 ug after 24 hrs by disc diffusion assay; assay type: functional; settings: read-out: IZ
Klebsiella pneumoniae [36] = test: Antibacterial activity against Klebsiella pneumoniae at 20 ug after 24 hrs by disc diffusion assay; assay type: functional; settings: read-out: IZ
Klebsiella pneumoniae [37] = test: Antibacterial activity against Klebsiella pneumoniae at 25 ug after 24 hrs by disc diffusion assay; assay type: functional; settings: read-out: IZ
Salmonella typhi [38] = test: Antibacterial activity against Salmonella typhi at 5 ug after 24 hrs by disc diffusion assay; assay type: functional, Salmonella enterica subsp. enterica serovar Typhi; settings: Salmonella enterica, read-out: IZ

In the case of `CCC1[C@@H]2c3c(c4ccccc4n(C)c3=O)OC(c3ccccc3)[C@H]2CN1OS(=O)(=O)c1ccc(C)cc1` (mixture of isomers), the zone of inhibition at 10 µg/disc (Salmonella typhi [1]) is reported as 16 mm, the zone of inhibition at 15 µg/disc (Salmonella typhi [2]) is reported as 18 mm and the zone of inhibition at 20 µg/disc (Salmonella typhi [3]) is reported as 20 mm. It also gave a zone of inhibition at 25 µg/disc (Salmonella typhi [4]) of 22 mm, a zone of inhibition at 10 µg/disc (Bacillus subtilis [5]) of 7 mm and a zone of inhibition at 15 µg/disc (Bacillus subtilis [6]) of 9 mm. The zone of inhibition at 20 µg/disc (Bacillus subtilis [7]) was 10 mm, the zone of inhibition at 25 µg/disc (Bacillus subtilis [8]) was 12 mm and the “DNA gyrase inhibition (active/inactive)” value (Escherichia coli [9]) was “Active”. For the same compound, the inhibition (Escherichia coli [10]) was “Active”, the “inhibition of gyrase mRNA expression (active/not active)” value (Escherichia coli [11]) was “Active” and the MIC50 (Staphylococcus aureus [12]) was 128 µg/mL. For the same compound, the MIC90 (Staphylococcus aureus [12]) was 128 µg/mL, the MIC50 (Escherichia coli [13]) was 128 µg/mL and the MIC90 (Escherichia coli [13]) was 128 µg/mL. The MIC50 (Klebsiella pneumoniae [14]) was 128 µg/mL, the MIC90 (Klebsiella pneumoniae [14]) was 128 µg/mL and the MIC50 (Pseudomonas aeruginosa [15]) was 128 µg/mL. For the same compound, the MIC90 (Pseudomonas aeruginosa [15]) was 128 µg/mL, the MIC50 (Salmonella typhi [16]) was 128 µg/mL and the MIC90 (Salmonella typhi [16]) was 128 µg/mL. The MIC50 (Bacillus subtilis [17]) was 128 µg/mL, the MIC90 (Bacillus subtilis [17]) was 128 µg/mL and the zone of inhibition at 5 µg/disc (Staphylococcus aureus [18]) was 9 mm. For the same compound, the zone of inhibition at 10 µg/disc (Staphylococcus aureus [19]) was 12 mm, the zone of inhibition at 15 µg/disc (Staphylococcus aureus [20]) was 13 mm and the zone of inhibition at 20 µg/disc (Staphylococcus aureus [21]) was 14 mm. The zone of inhibition at 25 µg/disc (Staphylococcus aureus [22]) was 17 mm, the zone of inhibition at 5 µg/disc (Escherichia coli [23]) was 10 mm and the zone of inhibition at 10 µg/disc (Escherichia coli [24]) was 16 mm. It also gave a zone of inhibition at 15 µg/disc (Escherichia coli [25]) of 18 mm, a zone of inhibition at 20 µg/disc (Escherichia coli [26]) of 20 mm and a zone of inhibition at 25 µg/disc (Escherichia coli [27]) of 23 mm. The zone of inhibition at 5 µg/disc (Pseudomonas aeruginosa [28]) was 10 mm, the zone of inhibition at 10 µg/disc (Pseudomonas aeruginosa [29]) was 16 mm and the zone of inhibition at 15 µg/disc (Pseudomonas aeruginosa [30]) was 17 mm. It also gave a zone of inhibition at 20 µg/disc (Pseudomonas aeruginosa [31]) of 22 mm, a zone of inhibition at 25 µg/disc (Pseudomonas aeruginosa [32]) of 24 mm and a zone of inhibition at 5 µg/disc (Klebsiella pneumoniae [33]) of 20 mm. The zone of inhibition at 10 µg/disc (Klebsiella pneumoniae [34]) was 26 mm, the zone of inhibition at 15 µg/disc (Klebsiella pneumoniae [35]) was 30 mm and the zone of inhibition at 20 µg/disc (Klebsiella pneumoniae [36]) was 34 mm. The zone of inhibition at 25 µg/disc (Klebsiella pneumoniae [37]) was 36 mm and the zone of inhibition at 5 µg/disc (Salmonella typhi [38]) was 10 mm.
For `CCC1[C@@H]2c3c(c4ccccc4n(C)c3=O)OC(C)(C)[C@H]2CN1OS(=O)(=O)c1ccc(C)cc1` (mixture of isomers), the zone of inhibition at 10 µg/disc (Salmonella typhi [1]) was 16 mm, the zone of inhibition at 15 µg/disc (Salmonella typhi [2]) was 18 mm and the zone of inhibition at 20 µg/disc (Salmonella typhi [3]) was 20 mm. The zone of inhibition at 25 µg/disc (Salmonella typhi [4]) was 22 mm, the zone of inhibition at 10 µg/disc (Bacillus subtilis [5]) was 7 mm and the zone of inhibition at 15 µg/disc (Bacillus subtilis [6]) was 9 mm. For the same compound, the zone of inhibition at 20 µg/disc (Bacillus subtilis [7]) was 10 mm, the zone of inhibition at 25 µg/disc (Bacillus subtilis [8]) was 12 mm and the “DNA gyrase inhibition (active/inactive)” value (Escherichia coli [9]) was “Active”. For the same compound, the inhibition (Escherichia coli [10]) was “Active”, the “inhibition of gyrase mRNA expression (active/not active)” value (Escherichia coli [11]) was “Active” and the MIC50 (Staphylococcus aureus [12]) was 0.5 µg/mL. For the same compound, the MIC90 (Staphylococcus aureus [12]) was 0.5 µg/mL, the MIC50 (Escherichia coli [13]) was 0.5 µg/mL and the MIC90 (Escherichia coli [13]) was 1 µg/mL. The MIC50 (Klebsiella pneumoniae [14]) was 0.5 µg/mL, the MIC90 (Klebsiella pneumoniae [14]) was 0.5 µg/mL and the MIC50 (Pseudomonas aeruginosa [15]) was 0.5 µg/mL. The MIC90 (Pseudomonas aeruginosa [15]) was 0.5 µg/mL, the MIC50 (Salmonella typhi [16]) was 0.5 µg/mL and the MIC90 (Salmonella typhi [16]) was 0.5 µg/mL. For the same compound, the MIC50 (Bacillus subtilis [17]) was 0.5 µg/mL, the MIC90 (Bacillus subtilis [17]) was 0.5 µg/mL and the zone of inhibition at 5 µg/disc (Staphylococcus aureus [18]) was 9 mm. The zone of inhibition at 10 µg/disc (Staphylococcus aureus [19]) was 12 mm, the zone of inhibition at 15 µg/disc (Staphylococcus aureus [20]) was 13 mm and the zone of inhibition at 20 µg/disc (Staphylococcus aureus [21]) was 14 mm. It also gave a zone of inhibition at 25 µg/disc (Staphylococcus aureus [22]) of 17 mm, a zone of inhibition at 5 µg/disc (Escherichia coli [23]) of 10 mm and a zone of inhibition at 10 µg/disc (Escherichia coli [24]) of 16 mm. The zone of inhibition at 15 µg/disc (Escherichia coli [25]) was 18 mm, the zone of inhibition at 20 µg/disc (Escherichia coli [26]) was 20 mm and the zone of inhibition at 25 µg/disc (Escherichia coli [27]) was 23 mm. It also gave a zone of inhibition at 5 µg/disc (Pseudomonas aeruginosa [28]) of 10 mm, a zone of inhibition at 10 µg/disc (Pseudomonas aeruginosa [29]) of 16 mm and a zone of inhibition at 15 µg/disc (Pseudomonas aeruginosa [30]) of 17 mm. For the same compound, the zone of inhibition at 20 µg/disc (Pseudomonas aeruginosa [31]) was 22 mm, the zone of inhibition at 25 µg/disc (Pseudomonas aeruginosa [32]) was 24 mm and the zone of inhibition at 5 µg/disc (Klebsiella pneumoniae [33]) was 20 mm. It also gave a zone of inhibition at 10 µg/disc (Klebsiella pneumoniae [34]) of 26 mm, a zone of inhibition at 15 µg/disc (Klebsiella pneumoniae [35]) of 30 mm and a zone of inhibition at 20 µg/disc (Klebsiella pneumoniae [36]) of 34 mm. It also gave a zone of inhibition at 25 µg/disc (Klebsiella pneumoniae [37]) of 36 mm and a zone of inhibition at 5 µg/disc (Salmonella typhi [38]) of 10 mm.
